From US12428408B2, “Fused heterocyclic mescaline derivatives” (Enveric Biosciences Canada Inc., priority 2022, dated 2025)

Tests used:
[1] = biological target: T1, 5-HT1A receptor (Homo sapiens, UniProt P08908); assay: 5-HT1A receptor radioligand competition assay (SPA); format: binding
T1 construct: purchased Perkin Elmer 6110501400UA
T1 sequence (P08908 1-422): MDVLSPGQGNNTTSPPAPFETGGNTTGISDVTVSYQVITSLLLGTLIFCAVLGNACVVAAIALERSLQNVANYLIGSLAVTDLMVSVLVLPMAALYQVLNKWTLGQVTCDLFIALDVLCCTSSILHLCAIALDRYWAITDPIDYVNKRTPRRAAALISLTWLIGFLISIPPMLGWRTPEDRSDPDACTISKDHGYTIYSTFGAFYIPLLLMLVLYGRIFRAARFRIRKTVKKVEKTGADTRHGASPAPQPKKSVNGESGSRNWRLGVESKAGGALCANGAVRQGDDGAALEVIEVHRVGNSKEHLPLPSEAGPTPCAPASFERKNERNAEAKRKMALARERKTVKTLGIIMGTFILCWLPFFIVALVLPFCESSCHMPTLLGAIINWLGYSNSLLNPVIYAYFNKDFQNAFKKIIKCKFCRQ

[2] = test system: Human NT2/D1 precursor cells (NT2/D1); assay: Neuroplastogenicity assay using human model (NT2) neurons; format: cell-based; details: RA-treated NT2 cells, 1 μM, 48 hours, vs 0.1% DMSO
Experimental: The compound with formula A(XXXII) was assayed for neuroplastogenic potential using the following procedure. Human NT2/D1 precursor cells (NT2/D1) were purchased from the American Type Culture Collection (ATCC, Manassas, VA, USA). The neuronal differentiation was carried out as previously described (Roloff et al., 2015, PLOS ONE e0118536:1-14; Roloff et al., 2013, BMC Neuroscience 14:141-155) with minor modifications. First, NT2/D1 cells were seeded in T-25 suspension culture flasks (REF #690190, Greiner bio-one, Germany). Each flask contained a minimum of 5×10^6 cells in 10 ml of DMEM/F12 supplemented with 10% fetal bovine serum (FBS), 1% penicillin and streptomycin and 10 μM retinoic acid (RA medium) to start neuronal differentiation. The cells were cultured for 3 days in free floating medium. At the end of the incubation, cells were trypsinized and collected by centrifugation, mechanically dispersed, and counted. Counted cells were seeded on Poly D-Lysine (PDL) coated cover slips (12 mm; diameter round, Fisher Scientific; GG-12-PDL) containing minimum of 0.1×10^5 cells in culture medium without RA. The next day, culture medium was replaced with RA medium containing 2% of FBS. These cells were cultured for 5 days, with a change of RA medium two days later. For the neuronal outgrowth assay, after cells had successfully attached and established under coverslips, the RA medium was replaced with one of the following: (1) test molecules at one of two different concentrations (10 μm or 1 μm); (2) positive control ROCK inhibitor Y-27632, (Dihydrochloride, Sigma-Aldrich); (2) positive control ibuprofen (14883-1G; Sigma-Aldrich), or (4) negative control culture medium containing 2% of FBS. Cells under these conditions were incubated for 48 hours under standard conditions (37° C., 5% CO2) in an incubator prior to the immunofluorescent assay.
For the immunofluorescent assay, the treated cells housed under coverslips were collected after 48 hours of drug treatments. These coverslips washed with calcium chloride-free and magnesium chloride-free phosphate buffered saline (PBS) pH 7.4 (Gibco, #70011-044) and fixed using paraformaldehyde (PFA) 4% in PBS (#J61899, thermoscientific) for 15 min at room temperature (RT) and washed three times with 0.01% of Triton-X100 in PBS (PBST) to remove remaining PFA and to permeabilize the cells. Unspecific binding sites were blocked with 5% Bovine Serum Albumin (BSA) solution (#9048-46-8, Millipore) in PBST for 60 minutes at RT. Rabbit monoclonal antibody β-III-Tubulin (1:5,000, ab52623, Abcam) was applied overnight (O/N) at 4° C. […] Finally, the immunofluorescence images were detected by using Olympus VS110 slide scanner microscope. […]

[3] = biological target: 5-HT2A receptor (Homo sapiens, UniProt P28223); assay: 5-HT2A receptor radioligand competition assay (SPA)
5-HT2A receptor, sequence (P28223 whole entry): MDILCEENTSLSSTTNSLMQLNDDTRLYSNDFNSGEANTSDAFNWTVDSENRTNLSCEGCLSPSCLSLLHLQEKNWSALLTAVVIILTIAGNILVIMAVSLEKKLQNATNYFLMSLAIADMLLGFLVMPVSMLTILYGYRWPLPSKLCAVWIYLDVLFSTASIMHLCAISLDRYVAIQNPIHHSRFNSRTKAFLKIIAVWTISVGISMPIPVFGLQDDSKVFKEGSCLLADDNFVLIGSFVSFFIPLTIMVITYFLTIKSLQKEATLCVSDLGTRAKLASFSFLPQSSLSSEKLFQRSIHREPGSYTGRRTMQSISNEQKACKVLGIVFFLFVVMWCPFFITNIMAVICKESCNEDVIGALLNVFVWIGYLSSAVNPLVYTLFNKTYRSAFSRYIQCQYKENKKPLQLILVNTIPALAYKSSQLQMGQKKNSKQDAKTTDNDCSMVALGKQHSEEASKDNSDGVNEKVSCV

Row | Structure (SMILES) | Ki [1] | neurite outgrowth (β-III-tubulin immunofluorescence) compared to negative control [2] | Ki [3]
1 | CC(Cc1ccc2c(c1)OCO2)N(C)CCc1c[nH]c2ccccc12 (stereo not shown) [A(XXXII)] | 465 nM | strong signs of neurite outgrowth | 465 nM
2 | CC(C)Cc1ccc(C(C)C(=O)O)cc1 (stereo not shown) [ibuprofen, reference compound] |  | strong signs of neurite outgrowth | 
